{"source": "ChEMBL document CHEMBL1201862", "about": "“PubChem BioAssay data set” (2004)", "key": {"Prothrombin": {"target": "Prothrombin (Homo sapiens, UniProt P00734)", "assay": "Thrombin 1536 HTS Dose Response Confirmation. [Related pubchem assays: 1046 (Thrombin 1536 HTS; hits were confirmed in this assay)]", "type": "functional"}, "P388": {"test_system": "P388", "assay": "cells", "type": "functional", "settings": "Mus musculus"}, "P388/ADR": {"test_system": "P388/ADR", "assay": "cells", "type": "functional", "settings": "Mus musculus"}, "SN12K1": {"test_system": "SN12K1", "assay": "cells", "type": "functional", "settings": "Homo sapiens"}, "[1]": {"target": "T1, Sentrin-specific protease 8 (Homo sapiens, UniProt Q96LD8)", "T1 sequence (Q96LD8 whole entry)": "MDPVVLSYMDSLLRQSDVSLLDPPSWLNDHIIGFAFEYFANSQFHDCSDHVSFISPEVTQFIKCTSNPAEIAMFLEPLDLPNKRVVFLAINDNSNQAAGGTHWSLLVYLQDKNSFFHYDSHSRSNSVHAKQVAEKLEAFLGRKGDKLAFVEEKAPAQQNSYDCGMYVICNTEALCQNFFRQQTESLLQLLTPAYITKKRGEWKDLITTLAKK", "type": "functional"}, "[2]": {"target": "T2, Sentrin-specific protease 7 (Homo sapiens, UniProt Q9BQF6)", "T2 sequence (Q9BQF6 whole entry)": "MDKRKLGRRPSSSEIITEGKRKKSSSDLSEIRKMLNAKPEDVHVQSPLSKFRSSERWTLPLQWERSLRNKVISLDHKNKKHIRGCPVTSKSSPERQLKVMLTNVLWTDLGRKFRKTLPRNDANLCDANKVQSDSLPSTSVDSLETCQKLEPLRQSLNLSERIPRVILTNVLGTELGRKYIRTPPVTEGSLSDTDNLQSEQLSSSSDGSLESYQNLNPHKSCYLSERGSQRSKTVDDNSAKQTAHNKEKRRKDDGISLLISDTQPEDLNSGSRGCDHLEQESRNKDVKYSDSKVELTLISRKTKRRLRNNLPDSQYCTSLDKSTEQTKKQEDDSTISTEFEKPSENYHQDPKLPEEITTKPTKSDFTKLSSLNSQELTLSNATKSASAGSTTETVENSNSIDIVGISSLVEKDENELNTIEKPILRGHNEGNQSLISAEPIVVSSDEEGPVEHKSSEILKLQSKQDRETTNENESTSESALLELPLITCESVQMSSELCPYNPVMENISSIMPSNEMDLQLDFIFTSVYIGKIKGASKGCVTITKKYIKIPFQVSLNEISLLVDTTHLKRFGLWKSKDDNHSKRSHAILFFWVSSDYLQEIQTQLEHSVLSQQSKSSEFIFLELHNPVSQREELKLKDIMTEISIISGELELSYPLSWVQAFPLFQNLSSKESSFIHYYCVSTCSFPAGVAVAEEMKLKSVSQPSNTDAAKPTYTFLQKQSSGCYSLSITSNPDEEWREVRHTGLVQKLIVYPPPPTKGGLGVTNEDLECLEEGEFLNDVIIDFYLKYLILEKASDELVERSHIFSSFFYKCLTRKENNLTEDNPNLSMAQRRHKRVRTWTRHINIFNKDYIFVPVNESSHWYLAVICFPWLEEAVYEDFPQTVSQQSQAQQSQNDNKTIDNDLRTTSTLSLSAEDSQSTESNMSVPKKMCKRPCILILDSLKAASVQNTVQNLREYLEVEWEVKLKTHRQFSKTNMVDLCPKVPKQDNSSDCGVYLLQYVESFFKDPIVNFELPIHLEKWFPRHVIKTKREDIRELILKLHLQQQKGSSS", "type": "functional"}, "[3]": {"target": "T3, Sentrin-specific protease 6 (Homo sapiens, UniProt Q9GZR1)", "T3 sequence (Q9GZR1 whole entry)": "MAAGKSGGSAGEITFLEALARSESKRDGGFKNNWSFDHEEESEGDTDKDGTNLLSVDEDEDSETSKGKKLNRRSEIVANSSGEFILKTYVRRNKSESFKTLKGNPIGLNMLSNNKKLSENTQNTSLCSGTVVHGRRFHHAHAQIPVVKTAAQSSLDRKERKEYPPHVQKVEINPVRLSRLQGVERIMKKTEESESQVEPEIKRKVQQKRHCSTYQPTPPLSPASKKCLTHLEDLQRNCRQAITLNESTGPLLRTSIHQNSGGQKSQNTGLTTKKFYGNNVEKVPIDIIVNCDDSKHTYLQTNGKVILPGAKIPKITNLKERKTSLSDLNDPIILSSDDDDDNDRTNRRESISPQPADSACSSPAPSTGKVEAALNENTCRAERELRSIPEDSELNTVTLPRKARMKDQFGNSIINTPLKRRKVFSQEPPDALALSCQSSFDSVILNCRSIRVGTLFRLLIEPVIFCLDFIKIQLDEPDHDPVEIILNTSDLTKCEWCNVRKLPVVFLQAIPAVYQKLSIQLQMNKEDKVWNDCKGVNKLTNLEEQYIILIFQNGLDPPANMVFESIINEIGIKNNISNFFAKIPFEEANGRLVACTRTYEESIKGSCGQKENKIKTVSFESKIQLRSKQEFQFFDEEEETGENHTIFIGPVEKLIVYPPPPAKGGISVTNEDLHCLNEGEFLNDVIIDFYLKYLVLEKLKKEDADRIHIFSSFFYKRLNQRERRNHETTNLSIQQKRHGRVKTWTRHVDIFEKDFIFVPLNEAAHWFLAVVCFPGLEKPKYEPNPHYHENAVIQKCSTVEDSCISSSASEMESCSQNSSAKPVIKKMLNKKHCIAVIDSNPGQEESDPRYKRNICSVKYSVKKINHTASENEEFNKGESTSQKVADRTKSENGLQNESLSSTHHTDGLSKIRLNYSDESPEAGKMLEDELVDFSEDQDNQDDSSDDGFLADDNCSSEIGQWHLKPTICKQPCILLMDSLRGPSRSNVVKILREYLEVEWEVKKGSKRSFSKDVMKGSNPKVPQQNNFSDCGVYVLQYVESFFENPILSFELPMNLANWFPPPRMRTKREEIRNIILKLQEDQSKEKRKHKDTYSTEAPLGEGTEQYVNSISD", "type": "functional"}, "Caspase-3": {"target": "T4, Caspase-3 (Homo sapiens, UniProt P42574)", "T4 sequence (P42574 whole entry)": "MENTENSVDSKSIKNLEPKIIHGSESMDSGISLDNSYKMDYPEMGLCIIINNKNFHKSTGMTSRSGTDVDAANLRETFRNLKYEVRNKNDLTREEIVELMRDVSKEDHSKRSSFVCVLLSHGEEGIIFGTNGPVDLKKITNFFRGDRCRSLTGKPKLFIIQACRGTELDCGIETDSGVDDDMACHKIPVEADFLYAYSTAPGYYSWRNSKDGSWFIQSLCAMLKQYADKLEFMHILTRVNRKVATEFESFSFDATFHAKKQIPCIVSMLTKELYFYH", "type": "functional"}, "[4]": {"target": "T5, Mannose-6-phosphate isomerase (Homo sapiens, UniProt P34949)", "T5 sequence (P34949 whole entry)": "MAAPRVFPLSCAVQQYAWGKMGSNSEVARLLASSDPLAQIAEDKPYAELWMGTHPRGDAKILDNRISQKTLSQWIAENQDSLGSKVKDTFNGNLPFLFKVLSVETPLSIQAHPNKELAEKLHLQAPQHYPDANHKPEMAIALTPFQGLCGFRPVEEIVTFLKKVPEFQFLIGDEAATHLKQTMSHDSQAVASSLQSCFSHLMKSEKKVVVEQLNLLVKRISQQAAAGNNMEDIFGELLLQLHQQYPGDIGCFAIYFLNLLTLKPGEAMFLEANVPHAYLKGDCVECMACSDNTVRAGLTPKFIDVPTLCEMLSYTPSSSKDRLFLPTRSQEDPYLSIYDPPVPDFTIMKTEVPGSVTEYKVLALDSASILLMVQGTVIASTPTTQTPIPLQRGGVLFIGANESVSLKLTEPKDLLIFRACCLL", "assay": "human PMI inhibitors, high substrate, primary screen, biochemical, fluorescence intensity, high mannose 6-phosphate (AID 1220)"}, "[5]": {"assay": "intracellular Trypanosoma cruzi inhibitors in host cells – cell-based, plate reader, cherry-pick samples, set 3, dose response (AID 651818);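 also: compounds incubated with infected cells for about four days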", "type": "functional"}, "H4": {"test_system": "H4", "assay": "Luminescence Cell-Based Dose Response HTS to Identify Activators of 5'UTR Stem-Loop Driven Prion Protein mRNA Translation in H4 Neuroglioblastoma Cells. [Related pubchem assays: 1829 (Project Summary), 1814 (Primary HTS)]", "type": "functional", "settings": "Homo sapiens"}}, "note": "The source made the active and inactive calls. Rule as the data show it, for most assays here: actives have a measured IC50 and inactives only a lower limit.", "data": [{"compound": "O=C(CSc1nnc(-c2ccccc2)c(-c2ccccc2)n1)Nc1ccc(Br)cn1", "values": [{"measurement": "IC50", "setting": "Prothrombin", "result": "> 50 µM (inconclusive)"}]}, {"compound": "CC(C)=CCC/C(C)=C/CCC1(C)C=Cc2c(c3ccccc3oc2=O)O1", "note": "(stereo not given)", "values": [{"measurement": "GI50", "setting": "P388", "result": "15.2 µM (inactive)"}, {"measurement": "GI50", "setting": "P388/ADR", "result": "20.2 µM (inactive)"}, {"measurement": "GI50", "setting": "SN12K1", "result": "16.9 µM (inactive)"}]}, {"compound": "CCn1c(SCC(N)=O)nnc1C(C)C", "values": [{"measurement": "IC50", "setting": "Prothrombin", "result": "> 50 µM (not active)"}]}, {"compound": "Nc1cc(Cl)nc(N/N=C/c2c(O)ccc3ccccc23)n1", "values": [{"measurement": "IC50", "setting": "[1]", "result": "> 100 µM (inactive)"}, {"measurement": "IC50", "setting": "[2]", "result": "5.83 µM (active)"}, {"measurement": "IC50", "setting": "[3]", "result": "> 100 µM (inactive)"}, {"measurement": "IC50", "setting": "Caspase-3", "result": "48 µM (active)"}]}, {"compound": "CN1CCN(P2(=S)Oc3ccc4ccccc4c3-c3c(ccc4ccccc34)O2)CC1", "values": [{"measurement": "GI50", "setting": "P388", "result": "24.1 µM (inactive)"}, {"measurement": "GI50", "setting": "P388/ADR", "result": "26.2 µM (inactive)"}, {"measurement": "GI50", "setting": "SN12K1", "result": "21.8 µM (inactive)"}]}, {"compound": "CCN(Cc1ccncc1)Cc1c(O)ccc2cc(Br)ccc12", "values": [{"measurement": "IC50", "setting": "[4]", "result": "> 50 µM (not active)"}]}, {"compound": "C[C@@H]1CN([C@H](C)CO)C(=O)c2cccc(NC(=O)c3nc4ccccc4s3)c2O[C@H]1CN(C)Cc1ccc(C(=O)Nc2ccccc2N)cc1", "values": [{"measurement": "AC50", "setting": "[5]", "result": "1.49 µM (active)"}]}, {"compound": "C=C(C)C(=O)O[C@H]1CC2=C[C@@H](C[C@@]3(C)O[C@@H]3[C@H]3OC(=O)C(=C)[C@@H]31)OC2=O", "note": "[ELEPHANTOPIN]", "values": [{"measurement": "GI50", "setting": "P388", "result": "0.124 µM (active)"}, {"measurement": "GI50", "setting": "P388/ADR", "result": "0.166 µM (active)"}, {"measurement": "GI50", "setting": "SN12K1", "result": "4.73 µM (inactive)"}]}, {"compound": "Cn1c(C(=O)Nc2ccc3c(c2)OCO3)cc2sccc21", "values": [{"measurement": "EC50", "setting": "H4", "result": "35 µM (active)"}, {"measurement": "IC50", "setting": "[1]", "result": "19.5 µM (active)"}, {"measurement": "IC50", "setting": "[2]", "result": "4.52 µM (active)"}, {"measurement": "IC50", "setting": "[3]", "result": "16.1 µM (active)"}, {"measurement": "IC50", "setting": "Caspase-3", "result": "14.4 µM (active)"}]}, {"compound": "COc1cc(CN2CCN(c3ccccc3F)CC2)c([N+](=O)[O-])cc1OC", "values": [{"measurement": "IC50", "setting": "[4]", "result": "> 50 µM (not active)"}]}, {"compound": "Cc1cccc(NC(=O)COc2ccc(Br)cc2C)n1", "values": [{"measurement": "IC50", "setting": "[1]", "result": "> 100 µM (inactive)"}, {"measurement": "IC50", "setting": "[2]", "result": "4.31 µM (active)"}, {"measurement": "IC50", "setting": "[3]", "result": "9.12 µM (active)"}, {"measurement": "IC50", "setting": "Caspase-3", "result": "13.9 µM (active)"}]}, {"compound": "CCOC(=O)/C=C/c1c(C)[nH]c(=O)[nH]c1=O", "values": [{"measurement": "GI50", "setting": "P388", "result": "158 µM (inactive)"}, {"measurement": "GI50", "setting": "P388/ADR", "result": "169 µM (inactive)"}, {"measurement": "GI50", "setting": "SN12K1", "result": "> 250 µM (inactive)"}]}]}
